Source: ChEMBL document CHEMBL1148069, “The punaglandins: 10-chloroprostanoids from the octocoral Telesto riisei” (J Nat Prod, 1994)
The source made the active and inactive calls. The calls are words filed in the database; no cut-off is given here.

Tests used:
Ehrlich = assay: Cytotoxicity against mouse EAC cells; type: functional, cell-based
L1210 = assay: Cytotoxicity against mouse L1210 cells; type: functional, cell-based

Row | Structure (SMILES) | Activity (Ehrlich) | Activity (L1210)
1 | CC/C=C\C/C=C\C[C@@]1(O)C=C(Cl)C(=O)/C1=C/[C@H](OC(C)=O)[C@H](CCCC(=O)OC)OC(C)=O | Active | Active
2 | CCCCC/C=C\C[C@@]1(O)C=C(Cl)C(=O)/C1=C/[C@H](OC(C)=O)[C@H](CCCC(=O)OC)OC(C)=O | Active | Active
